Read-outs that look alike come from different tables or passages of the source.
Columns and labels:
Alternaria solani = test: Biological Example C1 (comparative): in vivo preventive test on Alternaria solani (tomatoes); details: rate of application 50 ppm, evaluated 3 days after inoculation
Protocol: (§1) To produce a suitable preparation of active compound, 1 part by weight of active compound is mixed with the stated amounts of solvent and emulsifier, and the concentrate is diluted with water to the desired concentration.
(§2) To test for preventive activity, young plants are sprayed with the preparation of active compound at the stated rate of application. After the spray coating has dried on, the plants are inoculated with an aqueous spore suspension of Alternaria solani. The plants are then placed in an incubation cabinet at approximately 20° C. and a relative atmospheric humidity of 100%.
The test is evaluated 3 days after the inoculation. 0% means an efficacy which corresponds to that of the untreated control while an efficacy of 100% means that no disease is observed.

Phakopsora pachyrhizi = test: Biological Example C2 (comparative): in vivo preventive test on Phakopsora pachyrhizi (soybeans); details: rate of application 250 ppm, evaluated 7 days after inoculation
Protocol: as §1
To test for preventive activity, young plants are sprayed with the preparation of active compound at the stated rate of application. After the spray coating has dried on, the plants are inoculated with an aqueous spore suspension of the causal agent of soybean rust (Phakopsora pachyrhizi) and stay for 24 h without light in an incubation cabinet at approximately 24° C. and a relative atmospheric humidity of 95%. The plants remain in the incubation cabinet at approximately 24° C. and a relative atmospheric humidity of approximately 80% and a day/night interval of 12 h.
(§3) The test is evaluated 7 days after the inoculation. 0% means an efficacy which corresponds to that of the untreated control, while an efficacy of 100% means that no disease is observed.

[1] = Log P by HPLC on reversed phase columns (EEC directive 79/831 Annex V.A8); type: physicochemical
Protocol: Measurement of Log P values was performed according to EEC directive 79/831 Annex V.A8 by HPLC (High Performance Liquid Chromatography) on reversed phase columns with the following methods:
[^a] Log P value is determined by measurement of LC-UV, in an acidic range, with 0.1% formic acid in water and acetonitrile as eluent (linear gradient from 10% acetonitrile to 95% acetonitrile).
[^b] Log P value is determined by measurement of LC-UV, in a neutral range, with 0.001 molar ammonium acetate solution in water and acetonitrile as eluent (linear gradient from 10% acetonitrile to 95% acetonitrile).
[^c] Log P value is determined by measurement of LC-UV, in an acidic range, with 0.1% phosphoric acid and acetonitrile as eluent (linear gradient from 10% acetonitrile to 95% acetonitrile).
Calibration was done with straight-chain alkan-2-ones (with 3 to 16 carbon atoms) with known Log P values (measurement of Log P values using retention times with linear interpolation between successive alkanones). Lambda-max-values were determined using UV-spectra from 200 nm to 400 nm and the peak values of the chromatographic signals.

Sphaerotheca fuliginea = test: Biological Example C3 (comparative): in vivo preventive test on Sphaerotheca fuliginea (cucumbers); details: rate of application 50 ppm, evaluated 7 days after inoculation
Protocol: as §1
as §2, with “Sphaerotheca fuliginea.” for “Alternaria solani.”, “a greenhouse” for “an incubation cabinet”, “23°” for “20°”, “approximately 70%.” for “100%.”
as §3

[2] = LC-UV, acidic range, 0.1% formic acid in water and acetonitrile as eluent, read-out: LogP [a]

| SMILES | LogP [a] [1] | further results |
| --- | --- | --- |
| C#CCOc1cc(F)cc(F)c1Nc1c(-c2ccc(F)cc2Cl)c(C)nn1C [Example I-01] | – | Efficacy in % (Alternaria solani): 96%; Efficacy in % (Phakopsora pachyrhizi): 94%; chromatographic logP ([1]; reversed phase HPLC columns, LC-UV, acidic range, 0.1% formic acid in water and acetonitrile as eluent, read-out: LogP [a]): 3.26; chromatographic logP ([1]; reversed phase HPLC columns, LC-UV, acidic range, 0.1% phosphoric acid and acetonitrile as eluent, read-out: LogP [c]): 3.1; Efficacy in % (Sphaerotheca fuliginea): 98% |
| C#CCOc1cccc(Cl)c1Nc1c(-c2ccc(F)cc2F)c(C)nn1C [Example I-67] | 3.26^[a] | – |
| C=CCOc1cc(F)c(N=C=S)c(F)c1 [Z-ii-01] | 4.54^[a] | – |
| C#CCOc1cc(F)c(N=C=S)c(F)c1 [Z-ii-02] | 3.86^[a] | – |
| C#CCOc1cc(F)cc(F)c1N=C=S [Z-ii-03, 3,5-difluoro-2-isothiocyanatophenyl prop-2-yn-1-yl ether] | – | chromatographic logP [1, 2]: 3.68; chromatographic logP ([1]; pH 2.3, read-out: log P (pH 2.3)): 3.72 |
| C=CCOc1ccc(N=C=S)cc1 [Z-ii-05] | 4.06 | LogP [b] [1]: 4.09 |
| C=CCOc1ccc(N=C=S)cc1F [Z-ii-06] | 4.06^[a] | – |
| C=CCOc1ccc(F)c(N=C=S)c1 [Z-ii-07] | 4.30^[a] | – |
| C#CCOc1ccc(F)c(N=C=S)c1 [Z-ii-08] | 3.62^[a] | – |
| C#CCOc1cc(F)c(N=C=S)cc1F [Z-ii-09] | 3.64^[a] | – |
| C=CCOc1cc(F)c(N=C=S)cc1F [Z-ii-10] | 4.24^[a] | – |
| C#CCOc1ccc(N=C=S)cc1F [Z-ii-11] | 3.47^[a] | – |
| C#CCOc1ccc(N=C=S)c(Cl)c1 [Z-ii-12] | 3.99 | LogP [b] [1]: 3.96 |
| C=CCOc1ccc(N=C=S)c(Cl)c1 [Z-ii-13] | 4.72^[a]; 4.72^[b] | LogP [b] [1]: 4.72^[a]; 4.72^[b] |
| C#CCOc1cccc(Cl)c1N=C=S [Z-ii-14] | 3.86^[a] | – |
| C=CCOc1ccc(F)cc1N=C=S [Z-ii-16] | 4.24^[a] | – |
| C#CCOc1ccc(F)cc1N=C=S [Z-ii-17] | 3.62^[a] | – |
| C#CCOc1cc(C)ccc1N=C=S [Z-ii-18] | 3.82^[a] | – |
| C=CCOc1ccc(C#N)cc1N=C=S [Z-ii-19] | 3.71^[a] | – |
| C#CCOc1ccc(C#N)cc1N=C=S [Z-ii-20] | 3.13^[a] | – |
| C=CCOc1ccc(CC(C)=O)c(F)c1 [Z-iv-01, 1-[4-(allyloxy)-2-fluorophenyl]acetone] | – | chromatographic logP [1, 2]: 2.6 |
| COc1ccc(CC(C)=O)c(F)c1 [Z-iv-02, 1-(2-fluoro-4-methoxyphenyl)acetone] | – | chromatographic logP [1, 2]: 1.95 |
| C#CCOc1cc(F)cc(F)c1NC(=S)C(C(C)=O)c1ccc(F)cc1Cl (stereo not shown) [Z-ix-03] | 3.65^[a] | – |
| CCCOc1cc(F)cc(F)c1Nc1c(-c2ccc(F)cc2Cl)c(C)nn1C [drawing 18, reference compound] | – | Efficacy in % (Alternaria solani): 40% |
| CCCOc1cc(F)cc(F)c1Nc1c(-c2ccc(F)cc2Cl)c(C)nn1C [drawing 20, reference compound] | – | Efficacy in % (Phakopsora pachyrhizi): 53% |
| CCCOc1cc(F)cc(F)c1Nc1c(-c2ccc(F)cc2Cl)c(C)nn1C [drawing 22, reference compound] | – | Efficacy in % (Sphaerotheca fuliginea): 10% |

From patent US10246420B2, “Pyrazole derivatives” (BAYER CROPSCIENCE AKTIENGESELLSCHAFT, priority 2014, dated 2019)
